Assay results published in BigSolDB 2.1.

O=Cc1ccc([N+](=O)[O-])cc1
solubility (mole fraction) (in 2-butanone, 273.15 K): 0.0367 | solubility (mole fraction) (in 2-butanone, 278.15 K): 0.0459 | solubility (mole fraction) (in 2-butanone, 283.15 K): 0.0567 | solubility (mole fraction) (in 2-butanone, 288.15 K): 0.0689 | solubility (mole fraction) (in 2-butanone, 293.15 K): 0.0836 | solubility (mole fraction) (in 2-butanone, 298.15 K): 0.102 | solubility (mole fraction) (in 2-butanone, 303.15 K): 0.122 | solubility (mole fraction) (in 2-butanone, 308.15 K): 0.147 | solubility (mole fraction) (in 2-butanone, 313.15 K): 0.174 | solubility (mole fraction) (in DMF, 273.15 K): 0.104 | solubility (mole fraction) (in DMF, 278.15 K): 0.119 | solubility (mole fraction) (in DMF, 283.15 K): 0.135 | solubility (mole fraction) (in DMF, 288.15 K): 0.152 | solubility (mole fraction) (in DMF, 293.15 K): 0.17 | solubility (mole fraction) (in DMF, 298.15 K): 0.192 | solubility (mole fraction) (in DMF, 303.15 K): 0.213 | solubility (mole fraction) (in DMF, 308.15 K): 0.237 | solubility (mole fraction) (in DMF, 313.15 K): 0.262 | solubility (mole fraction) (in acetone, 273.15 K): 0.0389 | solubility (mole fraction) (in acetone, 278.15 K): 0.051 | solubility (mole fraction) (in acetone, 283.15 K): 0.0662 | solubility (mole fraction) (in acetone, 288.15 K): 0.0851 | solubility (mole fraction) (in acetone, 293.15 K): 0.107 | solubility (mole fraction) (in acetone, 298.15 K): 0.134 | solubility (mole fraction) (in acetone, 303.15 K): 0.166 | solubility (mole fraction) (in acetone, 308.15 K): 0.202 | solubility (mole fraction) (in acetone, 313.15 K): 0.244 | solubility (mole fraction) (in acetonitrile, 273.15 K): 0.0262 | solubility (mole fraction) (in acetonitrile, 278.15 K): 0.0351 | solubility (mole fraction) (in acetonitrile, 283.15 K): 0.0471 | solubility (mole fraction) (in acetonitrile, 288.15 K): 0.0614 | solubility (mole fraction) (in acetonitrile, 293.15 K): 0.0801 | solubility (mole fraction) (in acetonitrile, 298.15 K): 0.102 | solubility (mole fraction) (in acetonitrile, 303.15 K): 0.13 | solubility (mole fraction) (in acetonitrile, 308.15 K): 0.161 | solubility (mole fraction) (in acetonitrile, 313.15 K): 0.199 | solubility (mole fraction) (in ethanol, 273.15 K): 0.0151 | solubility (mole fraction) (in ethanol, 278.15 K): 0.0177 | solubility (mole fraction) (in ethanol, 283.15 K): 0.0199 | solubility (mole fraction) (in ethanol, 288.15 K): 0.0232 | solubility (mole fraction) (in ethanol, 293.15 K): 0.0265 | solubility (mole fraction) (in ethanol, 298.15 K): 0.031 | solubility (mole fraction) (in ethanol, 303.15 K): 0.0366 | solubility (mole fraction) (in ethanol, 308.15 K): 0.0422 | solubility (mole fraction) (in ethanol, 313.15 K): 0.0498 | solubility (mole fraction) (in ethyl acetate, 273.15 K): 0.0321 | solubility (mole fraction) (in ethyl acetate, 278.15 K): 0.0401 | solubility (mole fraction) (in ethyl acetate, 283.15 K): 0.0488 | solubility (mole fraction) (in ethyl acetate, 288.15 K): 0.0591 | solubility (mole fraction) (in ethyl acetate, 293.15 K): 0.072 | solubility (mole fraction) (in ethyl acetate, 298.15 K): 0.087 | solubility (mole fraction) (in ethyl acetate, 303.15 K): 0.106 | solubility (mole fraction) (in ethyl acetate, 308.15 K): 0.126 | solubility (mole fraction) (in ethyl acetate, 313.15 K): 0.151 | solubility (mole fraction) (in isopropanol, 273.15 K): 0.00326 | solubility (mole fraction) (in isopropanol, 278.15 K): 0.00399 | solubility (mole fraction) (in isopropanol, 283.15 K): 0.00451 | solubility (mole fraction) (in isopropanol, 288.15 K): 0.005 | solubility (mole fraction) (in isopropanol, 293.15 K): 0.00589 | solubility (mole fraction) (in isopropanol, 298.15 K): 0.00703 | solubility (mole fraction) (in isopropanol, 303.15 K): 0.00843 | solubility (mole fraction) (in isopropanol, 308.15 K): 0.00929 | solubility (mole fraction) (in isopropanol, 313.15 K): 0.0111 | solubility (mole fraction) (in methanol, 273.15 K): 0.0263 | solubility (mole fraction) (in methanol, 278.15 K): 0.0323 | solubility (mole fraction) (in methanol, 283.15 K): 0.0398 | solubility (mole fraction) (in methanol, 288.15 K): 0.0488 | solubility (mole fraction) (in methanol, 293.15 K): 0.0596 | solubility (mole fraction) (in methanol, 298.15 K): 0.0731 | solubility (mole fraction) (in methanol, 303.15 K): 0.0884 | solubility (mole fraction) (in methanol, 308.15 K): 0.108 | solubility (mole fraction) (in methanol, 313.15 K): 0.13 | solubility (mole fraction) (in n-butanol, 273.15 K): 0.0118 | solubility (mole fraction) (in n-butanol, 278.15 K): 0.0128 | solubility (mole fraction) (in n-butanol, 283.15 K): 0.0144 | solubility (mole fraction) (in n-butanol, 288.15 K): 0.0161 | solubility (mole fraction) (in n-butanol, 293.15 K): 0.018 | solubility (mole fraction) (in n-butanol, 298.15 K): 0.02 | solubility (mole fraction) (in n-butanol, 303.15 K): 0.0225 | solubility (mole fraction) (in n-butanol, 313.15 K): 0.0283 | solubility (mole fraction) (in n-propanol, 273.15 K): 0.014 | solubility (mole fraction) (in n-propanol, 278.15 K): 0.0152 | solubility (mole fraction) (in n-propanol, 283.15 K): 0.0168 | solubility (mole fraction) (in n-propanol, 288.15 K): 0.019 | solubility (mole fraction) (in n-propanol, 293.15 K): 0.0216 | solubility (mole fraction) (in n-propanol, 298.15 K): 0.0243 | solubility (mole fraction) (in n-propanol, 303.15 K): 0.0272 | solubility (mole fraction) (in n-propanol, 308.15 K): 0.0312 | solubility (mole fraction) (in n-propanol, 313.15 K): 0.0362 | solubility (mole fraction) (in toluene, 273.15 K): 0.0191 | solubility (mole fraction) (in toluene, 278.15 K): 0.0239 | solubility (mole fraction) (in toluene, 283.15 K): 0.0297 | solubility (mole fraction) (in toluene, 288.15 K): 0.0366 | solubility (mole fraction) (in toluene, 293.15 K): 0.0449 | solubility (mole fraction) (in toluene, 298.15 K): 0.0547 | solubility (mole fraction) (in toluene, 303.15 K): 0.0657 | solubility (mole fraction) (in toluene, 308.15 K): 0.0802 | solubility (mole fraction) (in toluene, 313.15 K): 0.0969
